# Laboratory results from publication PMC2857344 (2010).
# Tests used:
# [1] = test system: P27 (3MX-binding aptamer) (RNA, aptamer, 2-aminopurine at 27) GGCGAUACCAGCCGAAAGGCCAUUGGAAGCGUC; assay: steady-state 2-aminopurine fluorescence titration; settings: 100 mM NaCl, 10 mM MgCl2; 100 mM HEPES, 0.1 mM EDTA, pH 7.5, 25 °C; 100 nM RNA
# [2] = test system: WT 3MX-binding aptamer (RNA, aptamer) GGCGAUACCAGCCGAAAGGCCAUUGGAAGCGUC; assay: ITC; settings: 100 mM NaCl, 10 mM MgCl2; 100 mM HEPES, 0.1 mM EDTA, pH 7.5, 25 °C
# [3] = test system: WT theophylline-binding aptamer (RNA, aptamer) GGCGAUACCAGCCGAAAGGCCCUUGGCAGCGUC; assay: ITC; settings: 100 mM NaCl, 10 mM MgCl2; 100 mM HEPES, 0.1 mM EDTA, pH 7.5, 25 °C
# [4] = test system: P10 (3MX-binding aptamer) (RNA, aptamer, 2-aminopurine at 10 (replaces A10)) GGCGAUACCAGCCGAAAGGCCAUUGGAAGCGUC; assay: ITC; settings: 100 mM NaCl, 10 mM MgCl2; 100 mM HEPES, 0.1 mM EDTA, pH 7.5, 25 °C
# [5] = test system: P10Z11 (theophylline-binding aptamer) (RNA, aptamer, 2-aminopurine at 10 (replaces A10); 7-deazaguanine at 11) GGCGAUACCAGCCGAAAGGCCCUUGGCAGCGUC; assay: ITC; settings: 100 mM NaCl, 10 mM MgCl2; 100 mM HEPES, 0.1 mM EDTA, pH 7.5, 25 °C
# [6] = test system: P10 (theophylline-binding aptamer) (RNA, aptamer, 2-aminopurine at 10 (replaces A10)) GGCGAUACCAGCCGAAAGGCCCUUGGCAGCGUC; assay: ITC; settings: 100 mM NaCl, 10 mM MgCl2; 100 mM HEPES, 0.1 mM EDTA, pH 7.5, 25 °C
Structure (SMILES),Kd [1],Kd [2],Kd [3],Kd [4],Kd [5],Kd [6]
Cn1c(=O)[nH]c(=O)c2[nH]cnc21,3.6 ± 0.3 µM,2.7 ± 2.0 µM,1.6 ± 0.5 µM,24 ± 5 µM,,
Cn1c(=O)c2[nH]cnc2n(C)c1=O,,,0.86 ± 0.12 µM,,9.4 ± 0.7 µM,9.4 ± 0.8 µM
